Experimental data reported in ChEMBL document CHEMBL4373729, “Natural dimers of coumarin, chalcones, and resveratrol and the link between structure and pharmacology” (Eur J Med Chem, 2019).
Converted amounts (≈) assume the structure as drawn. Blank lines part the entries; values can stand above or below the molecule they belong to.

Tests used:
[1] = system: Plasmodium falciparum; test: Antiplasmodial activity against multidrug-resistant Plasmodium falciparum K1 by [3H]-hypoxanthine incorporation assay; format: functional, organism-based
[2] = system: NCI-H187; test: Cytotoxicity against human NCI-H187 cells assessed as reduction in cell viability; format: functional, cell-based
[3] = system: KB; test: Cytotoxicity against human KB cells assessed as reduction in cell viability; format: functional, cell-based
[4] = target: T1, Alpha glucosidase (Homo sapiens, UniProt O43451+P10253+P14410+Q2M2H8); test: Inhibition of alpha-glucosidase (unknown origin); format: protein assay
[5] = Inhibition of yeast alpha-glucosidase using p-nitrophenyl-alpha-D-glucopyranoside as substarte preincubated for 0.5 hrs followed by substrate addition measured after 0.5 hrs; set-up: species or system Saccharomyces cerevisiae
[6] = system: Saccharomyces cerevisiae; test: Inhibition of yeast alpha-glucosidase using p-nitrophenyl-alpha-D-glucopyranoside as substarte preincubated for 0.5 hrs followed by substrate addition measured after 0.5 hrs relative to control; conditions: concentration not given here
[7] = target: Human immunodeficiency virus type 1 reverse transcriptase (Human immunodeficiency virus 1, UniProt Q72547); test: Inhibition of HIV-1 reverse transcriptase
[8] = target: T1, Alpha glucosidase; test: Inhibition of alpha-glucosidase (unknown origin) using 4-nitrophenyl alpha-D-glucopyranoside as substarte preincubated for 10 mins followed by substrate addition measured after 30 mins; format: protein assay
[9] = target: T2, Cathepsin L2 (Homo sapiens, UniProt O60911); test: Inhibition of recombinant human cathepsin V using Z-Phe-Arg-7-amido-4-methylcoumarin as substrate by fluorescence assay
T2 sequence (O60911 whole entry): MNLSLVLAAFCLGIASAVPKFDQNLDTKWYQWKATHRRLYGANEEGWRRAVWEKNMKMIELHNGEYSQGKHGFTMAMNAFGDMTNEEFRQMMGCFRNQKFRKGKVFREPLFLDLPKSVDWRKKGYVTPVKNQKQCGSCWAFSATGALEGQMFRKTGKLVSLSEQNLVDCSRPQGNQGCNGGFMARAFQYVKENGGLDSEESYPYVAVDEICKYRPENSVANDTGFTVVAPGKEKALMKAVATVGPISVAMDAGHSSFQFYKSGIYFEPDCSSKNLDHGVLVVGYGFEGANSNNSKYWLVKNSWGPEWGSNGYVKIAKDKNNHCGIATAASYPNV

[10] = target: Glucagon-like peptide 1 receptor (Homo sapiens, UniProt P43220); test: Agonist activity at human GLP1 receptor
[11] = target: T3, DNA topoisomerase 2-alpha (Homo sapiens, UniProt P11388); test: Inhibition of human topoisomerase 2 by fluorescence method
[12] = target: T3, DNA topoisomerase 2-alpha; test: Inhibition of topoisomerase 2 (unknown origin)

T3 sequence (P11388 whole entry): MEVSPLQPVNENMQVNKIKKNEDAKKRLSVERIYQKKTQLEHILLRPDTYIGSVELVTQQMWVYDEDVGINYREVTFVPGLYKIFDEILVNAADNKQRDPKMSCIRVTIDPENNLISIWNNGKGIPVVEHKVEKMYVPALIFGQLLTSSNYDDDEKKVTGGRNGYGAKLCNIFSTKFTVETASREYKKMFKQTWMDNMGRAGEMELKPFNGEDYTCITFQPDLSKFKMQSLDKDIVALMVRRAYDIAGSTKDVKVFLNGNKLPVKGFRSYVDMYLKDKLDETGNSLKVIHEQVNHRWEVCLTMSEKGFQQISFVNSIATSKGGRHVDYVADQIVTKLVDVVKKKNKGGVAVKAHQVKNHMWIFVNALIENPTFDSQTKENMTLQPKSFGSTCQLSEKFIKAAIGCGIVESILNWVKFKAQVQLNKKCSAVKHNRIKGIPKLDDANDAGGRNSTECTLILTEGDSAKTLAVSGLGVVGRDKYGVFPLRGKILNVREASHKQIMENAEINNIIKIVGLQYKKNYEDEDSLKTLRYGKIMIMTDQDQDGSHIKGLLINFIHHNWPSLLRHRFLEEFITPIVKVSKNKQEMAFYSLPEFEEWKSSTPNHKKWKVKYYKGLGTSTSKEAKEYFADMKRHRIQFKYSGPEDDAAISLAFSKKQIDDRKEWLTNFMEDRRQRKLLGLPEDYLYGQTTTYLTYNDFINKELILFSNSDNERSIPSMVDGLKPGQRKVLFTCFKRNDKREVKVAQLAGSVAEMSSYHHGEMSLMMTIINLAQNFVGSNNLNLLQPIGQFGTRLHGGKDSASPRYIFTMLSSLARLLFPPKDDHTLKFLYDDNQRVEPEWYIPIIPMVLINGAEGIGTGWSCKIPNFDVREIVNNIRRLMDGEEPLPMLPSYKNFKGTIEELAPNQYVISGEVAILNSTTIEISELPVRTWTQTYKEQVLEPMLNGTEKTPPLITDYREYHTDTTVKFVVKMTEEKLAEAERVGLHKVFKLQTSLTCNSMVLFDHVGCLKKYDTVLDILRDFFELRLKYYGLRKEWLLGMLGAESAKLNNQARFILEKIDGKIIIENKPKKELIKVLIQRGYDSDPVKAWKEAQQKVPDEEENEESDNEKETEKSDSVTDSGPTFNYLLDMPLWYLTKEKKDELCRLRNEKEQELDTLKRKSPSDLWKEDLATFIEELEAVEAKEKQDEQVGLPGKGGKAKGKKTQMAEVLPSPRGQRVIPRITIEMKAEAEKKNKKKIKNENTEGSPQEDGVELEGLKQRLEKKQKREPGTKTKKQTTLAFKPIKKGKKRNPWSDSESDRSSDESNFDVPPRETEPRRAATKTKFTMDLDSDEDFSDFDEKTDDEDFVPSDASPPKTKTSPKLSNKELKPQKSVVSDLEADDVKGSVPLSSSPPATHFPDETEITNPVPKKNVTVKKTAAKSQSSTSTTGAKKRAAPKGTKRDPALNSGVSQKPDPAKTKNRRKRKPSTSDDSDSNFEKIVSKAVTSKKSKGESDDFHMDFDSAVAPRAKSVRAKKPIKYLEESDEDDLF
Glucagon-like peptide 1 receptor, sequence (P43220 whole entry): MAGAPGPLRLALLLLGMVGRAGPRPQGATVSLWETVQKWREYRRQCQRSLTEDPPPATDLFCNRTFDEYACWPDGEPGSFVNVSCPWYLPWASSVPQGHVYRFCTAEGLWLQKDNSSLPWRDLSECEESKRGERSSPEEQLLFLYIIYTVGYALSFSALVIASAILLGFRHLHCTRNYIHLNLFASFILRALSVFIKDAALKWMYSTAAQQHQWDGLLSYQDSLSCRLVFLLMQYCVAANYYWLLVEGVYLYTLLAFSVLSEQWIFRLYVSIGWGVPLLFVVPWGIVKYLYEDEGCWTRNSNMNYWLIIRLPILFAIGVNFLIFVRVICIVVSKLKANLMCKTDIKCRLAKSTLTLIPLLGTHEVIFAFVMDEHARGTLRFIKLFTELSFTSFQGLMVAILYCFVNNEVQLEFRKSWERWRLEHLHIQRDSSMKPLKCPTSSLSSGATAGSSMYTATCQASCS

SMILES: COc1cc(OC)c2c(c1OC)O[C@H]1c3c(OC)cc(OC)c(OC)c3O[C@H](c3ccccc3)[C@H]1[C@@H]2/C=C/c1ccccc1 [DEPENDENSIN]
IC50 [1]: 3.02 to 4.21 µg/mL (≈ 5.06 to 7.06 µM)

SMILES: C=CC(C)(C)c1c2c(c(O)c3c1OC(C)(C)C=C3)C=C([C@H]1CC(C)(C)Oc3c1c(O)c1ccc(=O)oc1c3C(C)(C)C=C)CO2
IC50 [2]: 7.1 µg/mL (≈ 11.6 µM) | IC50 [3]: 5.95 µg/mL (≈ 9.74 µM)

SMILES: COc1cc(OC)c([C@@H]2Oc3c(OC)c(OC)cc(OC)c3[C@H](/C=C/c3ccccc3)[C@@H]2C(=O)c2ccccc2)c(O)c1OC
IC50 [1]: 3.02 to 4.21 µg/mL (≈ 4.93 to 6.87 µM)

SMILES: O=C(c1ccc(O)cc1O)[C@@H]1[C@H](c2ccc(O)cc2)c2cc(O)c(O)cc2[C@H](O)[C@@H]1C(=O)c1ccc(O)cc1
IC50 [9]: 1.4 µM

SMILES: COc1cc(OC)c(OC)c2c1C[C@H]1[C@@H](/C=C/c3ccccc3)c3c(OC)cc(OC)c(OC)c3O[C@@]1(c1ccccc1)O2
IC50 [1]: 3.02 to 4.21 µg/mL (≈ 5.06 to 7.06 µM)

SMILES: COc1cc([C@H]2[C@](NC(=O)c3ccc(NC(=O)OC(C)(C)C)cc3)(C(=O)O)[C@@H](c3ccc(OC(=O)c4cccs4)c(OC)c3)[C@]2(NC(=O)c2ccc(NC(=O)OC(C)(C)C)cc2)C(=O)O)ccc1OC(=O)c1cccs1
EC50 [10]: 0.847 µM

SMILES: COc1cc(OC)c2c(c1OC)C=C(C(=O)c1ccccc1)C1(C=C(c3ccccc3)Oc3c(OC)c(OC)cc(OC)c31)O2 (stereo unspecified)
IC50 [1]: 3.02 to 4.21 µg/mL (≈ 4.96 to 6.92 µM)

SMILES: COc1cc(OC)c([C@@H]2Oc3c(OC)c(OC)cc(OC)c3[C@@H](/C=C/c3ccccc3)[C@H]2C(=O)c2ccccc2)c(O)c1OC
IC50 [1]: 3.02 to 4.21 µg/mL (≈ 4.93 to 6.87 µM)

SMILES: O=C(/C=C/c1ccc(O)cc1)c1cc2c(cc1O)O[C@H](c1ccc(O)cc1)[C@H]2C(=O)c1ccc(O)cc1O
IC50 [11]: 14.5 µM

SMILES: O=C(c1ccc(O)cc1O)[C@H]1[C@H](c2ccc(O)cc2)c2cc(O)c(O)cc2[C@H](O)[C@]1(O)C(=O)c1ccc(O)cc1
IC50 [9]: 0.42 µM

The remaining lines, values ahead:

IC50 [4]: 8.8 to 9.8 µM
SMILES: C=C(C)C(COc1c2occc2cc2ccc(=O)oc12)OC(C)(C)[C@H](O)COc1c2ccoc2cc2oc(=O)ccc12 (stereo partly specified)

IC50 [5]: 36.8 µM | inhibition [6]: > 65%
SMILES: Cc1cc(=O)oc2cc(O)c(-c3c(C)c4ccc(O)cc4oc3=O)cc12

IC50 [7]: 8 µM
SMILES: Oc1ccc(/C=C/c2cc(O)c3c(-c4cc(O)cc(O)c4)c(-c4ccc(O)cc4)oc3c2)cc1

IC50 [8]: 231 µg/mL (≈ 334 µM)
SMILES: COc1cc2cc(Oc3cc(O[C@@H]4O[C@H](CO)[C@@H](O)[C@H](O)[C@H]4O[C@@H]4O[C@H](CO)[C@@H](O)[C@H](O)[C@H]4O)c4ccc(=O)oc4c3)c(=O)oc2cc1O

IC50 [8]: 780 µg/mL (≈ 1210 µM)
SMILES: O=c1ccc2ccc(Oc3cc4ccc(O)c(-c5c(OC6O[C@H](CO)[C@@H](O)[C@H](O)[C@H]6O)ccc6ccc(=O)oc56)c4oc3=O)cc2o1 (stereo partly specified)

IC50 [8]: 760 µg/mL (≈ 1570 µM)
SMILES: O=c1ccc2ccc(O)c(-c3c(OC4O[C@H](CO)[C@@H](O)[C@H](O)[C@H]4O)ccc4ccc(=O)oc34)c2o1 (stereo partly specified)

IC50 [4]: 8.8 to 9.8 µM
SMILES: C=C(C)C(COc1c2occc2c(OC)c2ccc(=O)oc12)OC(C)(C)[C@H](O)COc1c2ccoc2cc2oc(=O)ccc12 (stereo partly specified)

IC50 [9]: 0.7 µM
SMILES: O=C1c2ccc(O)cc2OC2c3cc(O)c(O)cc3[C@@H](c3ccc(O)cc3)[C@@H](C(=O)c3ccc(O)cc3O)C12 (stereo partly specified)

IC50 [11]: 15.3 µM | IC50 [12]: 2.1 µM
SMILES: O=C(/C=C/c1ccc(O)cc1)c1ccc2c(c1O)[C@H](C(=O)c1ccc(O)cc1O)[C@@H](c1ccc(O)cc1)O2

IC50 [4]: 8.8 to 9.8 µM
SMILES: C=C(C)C(COc1c2ccoc2cc2oc(=O)ccc12)OC(C)(C)C(O)COc1c2occc2c(OC)c2ccc(=O)oc12 (stereo unspecified)

IC50 [5]: 16.3 µM | inhibition [6]: > 65%
SMILES: Cc1c(-c2c(O)ccc3c(C)cc(=O)oc23)c(=O)oc2cc(O)ccc12

EC50 [10]: 0.203 µM
SMILES: COc1cc([C@H]2[C@](NC(=O)c3ccc(NC(=O)C(C)C)cc3)(C(=O)O)[C@@H](c3ccc(OC(=O)c4cccs4)c(OC)c3)[C@]2(NC(=O)c2ccc(NC(=O)C(C)C)cc2)C(=O)O)ccc1OC(=O)c1cccs1
